Results on 29 compounds are retold here after US7803801B2, “Aminopyridine compounds having Syk inhibitory activity” (Japan Tobacco, Inc., priority 2005, dated 2010).

The IC50 is the concentration that gives 50% inhibition.

Where a name gives a salt, the structure may show the parent alone. Some results are limits rather than exact numbers.

The subject of experiment [1] is cultured human mast cells. The experiment can be described thus: Degranulation inhibition test using cultured human mast cells (IgE cross-linking, β-Hexosaminidase release). The format is cell-based. The conditions noted are these: Mast cell; Tables 1-x, compounds A; cultured human mast cells; read-out: human degranulation ave. IC50. A digest of the protocol: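 CD34+ cord-blood cells cultured ≥8 weeks with SCF/IL-6/IL-3; FcεRI primed 5 days with rhIL-4 (1 ng/mL) and hIgE (0.5 μg/mL). Compound (0.1% DMSO) preincubated 10 min at 37 °C, then anti-IgE (final 10 μg/mL) 30 min; released β-hexosaminidase read at 405 nm versus total lysate, IC50 (M).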

For experiment [2], the target named is GST-Syk Full Protein (human) (Homo sapiens, UniProt P43405). Put plainly: Syk kinase inhibition test (HTRF method). The format is biochemical. The note with it: Tables 1-x, compounds A; read-out: sykHTRF ave IC50. A digest of the protocol:
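Human GST-Syk full-length (6.4 nM) phosphorylated biotin-EDPDYEWPSA-NH2 (250 nM) with 100 μM ATP in HEPES pH 7.0/MgCl2 buffer, 2% DMSO, 30 min at room temperature. EDTA stop, then HTRF detection (streptavidin-XL665, Eu anti-phosphotyrosine) after 1 h; 665/620 ratio read.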
For orientation: Time-resolved FRET reads energy transfer from a long-lived donor to a nearby acceptor.

As for `CNC(=O)C1CCN(c2ncc(-c3cccc(Nc4cc(OC)ccn4)n3)s2)CC1` [Compound A-436, N-methyl-1-{5-[6-(4-methoxypyridin-2-ylamino)pyridin-2-yl]thiazol-2-yl}piperidine-4-carboxamide], the IC50 in experiment [1] was 100 to 1000 nM; in experiment [2], under 100 nM.

On to `Cc1ccnc(Nc2cccc(-c3sc(N4CCN(C=O)CC4)nc3C)n2)c1` [Compound A-437, 4-{4-methyl-5-[6-(4-methylpyridin-2-ylamino)pyridin-2-yl]thiazol-2-yl}piperazine-1-carbaldehyde], for which the IC50 in experiment [1] is 100 to 1000 nM; in experiment [2], under 100 nM.

For `COC(=O)N1CCN(c2ncc(-c3cccc(Nc4cc(C)ccn4)n3)s2)CC1` [Compound A-438, methyl 4-{5-[6-(4-methylpyridin-2-ylamino)pyridin-2-yl]thiazol-2-yl}piperazine-1-carboxylic acid methyl ester], the IC50 in experiment [1] was 100 to 1000 nM; in experiment [2] it was under 100 nM.

Regarding `Cc1ccnc(Nc2cccc(-c3cnc(N4CCN(C(=O)CO)CC4)s3)n2)c1` [Compound A-439, 2-hydroxy-1-(4-{5-[6-(4-methylpyridin-2-ylamino)pyridin-2-yl]thiazol-2-yl}piperazin-1-yl)ethanone], the IC50 in experiment [1] and in experiment [2] was under 100 nM in each case.

On to `CCC(=O)N1CCN(c2ncc(-c3cccc(Nc4cc(C)ccn4)n3)s2)CC1` [Compound A-440, 1-(4-{5-[6-(4-methylpyridin-2-ylamino)pyridin-2-yl]thiazol-2-yl}piperazin-1-yl)propan-1-one], for which the IC50 in experiment [1] was 100 to 1000 nM; in experiment [2], under 100 nM.

As to `Cc1ccnc(Nc2cccc(-c3cnc(N4CCN(C(=O)N(C)C)CC4)s3)n2)c1` [Compound A-441, N,N-dimethyl-4-{5-[6-(4-methylpyridin-2-ylamino)pyridin-2-yl]thiazol-2-yl}piperazine-1-carboxamide], the IC50 in experiment [1] is 100 to 1000 nM; in experiment [2], under 100 nM.

`COc1ccnc(Nc2cccc(-c3cnc(N4CCN(C(C)=O)CC4)s3)n2)c1` [Compound A-442, 1-(4-{5-[6-(4-methoxypyridin-2-ylamino)pyridin-2-yl]thiazol-2-yl}piperazin-1-yl)ethanone]: the IC50 in experiment [1] was 100 to 1000 nM; in experiment [2], under 100 nM.

`CC(=O)N1CCN(c2ncc(-c3cccc(Nc4cc(Cl)ccn4)n3)s2)CC1` [Compound A-443, 1-(4-{5-[6-(4-chloropyridin-2-ylamino)pyridin-2-yl]thiazol-2-yl}piperazin-1-yl)ethanone]: the IC50 in experiment [1] is 100 to 1000 nM; in experiment [2], under 100 nM.

In the case of `Cc1ccnc(Nc2cccc(-c3cnc(N(C)C4CCC(C(=O)O)CC4)s3)n2)c1` (stereo not shown) [Compound A-444, 4-(methyl-{5-[6-(4-methylpyridin-2-ylamino)pyridin-2-yl]thiazol-2-yl}amino)cyclohexanecarboxylic acid], the IC50 is 100 to 1000 nM in experiment [1] and under 100 nM in experiment [2].

In the case of `Cc1ccnc(Nc2cccc(-c3cnc(N(C)C4CCC(C(N)=O)CC4)s3)n2)c1` (stereo not shown) [Compound A-446, 4-(N-methyl-N-{5-[6-(4-methylpyridin-2-ylamino)pyridin-2-yl]thiazol-2-yl}amino)cyclohexanecarboxamide], the values for the IC50 in experiment [1] and in experiment [2] were 100 to 1000 nM and under 100 nM, respectively.

For the compound `Cc1ccnc(Nc2cccc(-c3cnc(N4CCC(c5noc(=O)[nH]5)CC4)s3)n2)c1` [Compound A-450, 3-(1-{5-[6-(4-methylpyridin-2-ylamino)pyridin-2-yl]thiazol-2-yl}piperidin-4-yl)-4H-[1,2,4]oxadiazole-5-one], the IC50 is over 1000 nM in experiment [1] and under 100 nM in experiment [2].

Regarding `Cc1ccnc(Nc2cccc(-c3cnc(N(C)C4CCNCC4)s3)n2)c1` [Compound A-452, N-methyl-N-{5-[6-(4-methylpyridin-2-ylamino)pyridin-2-yl]thiazol-2-yl}-N-piperidin-4-ylamine], the IC50 in experiment [1] was over 1000 nM; in experiment [2], under 100 nM.

In the case of `COC(CN(C)c1ncc(-c2cccc(Nc3cc(C)ccn3)n2)s1)OC` [Compound A-457, N-(2,2-dimethoxyethyl)-N-methyl-N-{5-[6-(4-methylpyridin-2-ylamino)pyridin-2-yl]thiazol-2-yl}amine], the results for the IC50 in experiment [1] and in experiment [2] were 100 to 1000 nM and under 100 nM, respectively.

On to `CC(=O)N1CCC(N(C)c2ncc(-c3cccc(Nc4cc(C)ccn4)n3)s2)CC1` [Compound A-458, 1-[4-(N-methyl-N-{5-[6-(4-methylpyridin-2-ylamino)pyridin-2-yl]thiazol-2-yl}amino)piperidin-1-yl]ethanone], for which the values for the IC50 in experiment [1] and in experiment [2] were 100 to 1000 nM and under 100 nM, respectively.

Consider `Cc1ccnc(Nc2cccc(-c3cnc(N(C)C4CCN(C(=O)CO)CC4)s3)n2)c1` [Compound A-459, 2-hydroxy-1-[4-(N-methyl-N-{5-[6-(4-methylpyridin-2-ylamino)pyridin-2-yl]thiazol-2-yl}amino)piperidin-1-yl]ethanone], for which the IC50 in experiment [1] is 100 to 1000 nM; in experiment [2], under 100 nM.

Take `CNC(=O)N1CCC(N(C)c2ncc(-c3cccc(Nc4cc(C)ccn4)n3)s2)CC1` [Compound A-460, N-methyl-4-(N′-methyl-N′-{5-[6-(4-methylpyridin-2-ylamino)pyridin-2-yl]thiazol-2-yl}amino)piperidine-1-carboxamide]: the IC50 in experiment [1] is 100 to 1000 nM; in experiment [2], under 100 nM.

For the compound `CC(=O)NCC(=O)N1CCC(N(C)c2ncc(-c3cccc(Nc4cc(C)ccn4)n3)s2)CC1` [Compound A-461, N-{2-[4-(N′-methyl-N′-{5-[6-(4-methylpyridin-2-ylamino)pyridin-2-yl]thiazol-2-yl}amino)piperidin-1-yl]-2-oxoethyl}acetamide], the IC50 in experiment [1] is 100 to 1000 nM; in experiment [2], under 100 nM.

Regarding `Cc1ccnc(Nc2cccc(-c3cnc(N4CCN(CC(=O)O)C(=O)C4)s3)n2)c1` [Compound A-464, (4-{5-[6-(4-methylpyridin-2-ylamino)pyridin-2-yl]thiazol-2-yl}-2-oxopiperazin-1-yl)acetic acid dihydrochloride], the IC50 is over 1000 nM in experiment [1] and under 100 nM in experiment [2].

Turning to `Cc1ccnc(Nc2cccc(-c3cnc(N4CCN(CC(N)=O)C(=O)C4)s3)n2)c1` [Compound A-465, 2-(4-{5-[6-(4-methylpyridin-2-ylamino)pyridin-2-yl]thiazol-2-yl}-2-oxopiperazin-1-yl)acetamide], the IC50 was 100 to 1000 nM in experiment [1] and under 100 nM in experiment [2].

`CNC(=O)CN1CCN(c2ncc(-c3cccc(Nc4cc(C)ccn4)n3)s2)CC1=O` [Compound A-466, N-methyl-2-(4-{5-[6-(4-methylpyridin-2-ylamino)pyridin-2-yl]thiazol-2-yl}-2-oxopiperazin-1-yl)acetamide]: the half-inhibitory concentration (IC50) in experiment [1] was over 1000 nM; in experiment [2], under 100 nM.

Consider `CNC(=O)CN(C)C(=O)C1CCN(c2ncc(-c3cccc(Nc4cc(C)ccn4)n3)s2)CC1` [Compound A-469, N-methyl-N-methylcarbamoylmethyl-1-{5-[6-(4-methylpyridin-2-ylamino)pyridin-2-yl]thiazol-2-yl}piperidine-4-carboxamide], for which the IC50 is 100 to 1000 nM in experiment [1] and under 100 nM in experiment [2].

In the case of `Cc1ccnc(Nc2cccc(-c3cnc(N(C)C4CCOCC4)s3)n2)c1` [Compound A-470, N-methyl-N-{5-[6-(4-methylpyridin-2-ylamino)pyridin-2-yl]thiazol-2-yl}-N-tetrahydropyran-4-ylamine], the values for the IC50 in experiment [1] and in experiment [2] were 100 to 1000 nM and under 100 nM, respectively.

As for `Cc1ccnc(Nc2cccc(-c3cnc(N(C)Cc4ccc(O)cc4)s3)n2)c1` [Compound A-471, 4-[(N-methyl-N-{5-[6-(4-methylpyridin-2-ylamino)pyridin-2-yl]thiazol-2-yl}amino)methyl]phenol], the IC50 in experiment [1] was 100 to 1000 nM; in experiment [2], under 100 nM.

As to `CC(=O)N[C@@H]1CCN(c2ncc(-c3cccc(Nc4cc(C)ccn4)n3)s2)C1` [Compound A-472, N—((R)-1-{5-[6-(4-methylpyridin-2-ylamino)pyridin-2-yl]thiazol-2-yl}pyrrolidin-3-yl)acetamide], the results for the IC50 in experiment [1] and in experiment [2] were 100 to 1000 nM and under 100 nM, respectively.

Take `Cc1ccnc(Nc2cccc(-c3cnc(N4CC[C@@H](N)C4)s3)n2)c1` [Compound A-473, (R)-1-{5-[6-(4-methylpyridin-2-ylamino)pyridin-2-yl]thiazol-2-yl}pyrrolidin-3-ylamine]: the IC50 in experiment [1] is over 1000 nM; in experiment [2], under 100 nM.

`Cc1ccnc(Nc2cccc(-c3cnc(N4CCCC(C(=O)O)C4)s3)n2)c1` (stereo not shown) [Compound A-474, 1-{5-[6-(4-methylpyridin-2-ylamino)pyridin-2-yl]thiazol-2-yl}piperidine-3-carboxylic acid]: the IC50 in experiment [1] is over 1000 nM; in experiment [2] it was under 100 nM.

On to `Cc1ccnc(Nc2cccc(-c3cnc(N4CC[C@@H](NC(=O)CO)C4)s3)n2)c1` [Compound A-475, 2-hydroxy-N—((R)-1-{5-[6-(4-methylpyridin-2-ylamino)pyridin-2-yl]thiazol-2-yl}pyrrolidin-3-yl)acetamide], for which the IC50 in experiment [1] is 100 to 1000 nM; in experiment [2], under 100 nM.

`Cc1ccnc(Nc2cccc(-c3cnc(N4CCCC(C(N)=O)C4)s3)n2)c1` (stereo not shown) [Compound A-476, 1-{5-[6-(4-methylpyridin-2-ylamino)pyridin-2-yl]thiazol-2-yl}piperidine-3-carboxamide]: the IC50 in experiment [1] and in experiment [2] was under 100 nM throughout.

Regarding `CNC(=O)C1CCCN(c2ncc(-c3cccc(Nc4cc(C)ccn4)n3)s2)C1` (stereo not shown) [Compound A-477, N-methyl-1-{5-[6-(4-methylpyridin-2-ylamino)pyridin-2-yl]thiazol-2-yl}piperidine-3-carboxamide], the values for the IC50 in experiment [1] and in experiment [2] were 100 to 1000 nM and under 100 nM, respectively.
